Data published in patent publication US12428386B2, “Sphingosine 1 phosphate receptor modulators” (RECEPTOS LLC, priority 2020, dated 2025).

Legend:
S1P1 = biological target: T1, S1P1 (Homo sapiens, UniProt P21453); test: [35S]-GTPγS binding assay, CHO-S1P receptor membranes, S1P1; format: biochemical; details: CHO-S1P receptor membrane; for Emax: control S1P, read-out: S1P1 % Efficacy
T1 construct: expressed in transfected cells; host or cells: CHO cell membranes
Method: (§1) Binding assays for [^35S]-GTPγS were performed in 96-well non-binding surface plates with a final volume of 200 μL. The test compounds were serial diluted in DMSO and added to assay plates using a Tecan D300E digital printer with a total volume of 0.4 μL. The control sphingosine-1-phosphate (S1P) was prepared separately by preparing a 400 μM stock solution from a 100 nmol pellet of S1P in 10 mM Na2CO3 with 2% β-cyclodextrin. The serial dilution of S1P was done using complete assay buffer (20 mM HEPES, 10 mM MgCl2, 100 mM NaCl, 1 mM EDTA, 0.1% fatty acid free bovine serum albumin [BSA], and 30 μg/mL saponin, pH7.4) and transferred to wells already containing 0.4 μL DMSO. All the wells were then loaded to a total volume of 40 μL of complete assay buffer, except the non-specific binding (NSB) wells. For NSB wells, 40 μL/well of 50 μM GTPγS (Sigma Aldrich, cat# G8634, St. Louis, MO) was added to wells containing 0.4 μL of DMSO. The assay was started by the addition of 120 μL/well of CHO-S1P receptor membrane solution containing 40 μg/mL of membrane protein, 16.67 μM guanosine diphosphate (GDP; Sigma Aldrich, cat# G7127, St. Louis, MO), and 2.5 mg/mL of WGA PVT SPA beads in complete buffer. Assay plates were then sealed and incubated at room temperature with gentle agitation for 30 minutes. Next, 40 μL/well of 1 nM of [^35S]-GTPγS (PerkinElmer, cat# NEG030×250UC, Waltham, MA) in basic assay buffer (20 mM HEPES, 10 mM MgCl2, 100 mM NaCl, and 1 mM EDTA, pH7.4) was added to the assay plates to yield a final concentration of 200 pM and the plates were further incubated for 40 minutes at room temperature with gentle agitation. The assay was terminated by centrifugation of the plates at 1000 rpm for 3 minutes using an Eppendorf 5810R centrifuge (Eppendorf, Hamburg, Germany) and G protein bound radioactivity was quantitated using a MicroBeta2 microplate scintillation counter (PerkinElmer, Waltham, MA).

S1P5 = biological target: T2, S1P5 (Homo sapiens, UniProt Q9H228); test: [35S]-GTPγS binding assay, CHO-S1P receptor membranes, S1P5; format: biochemical; details: CHO-S1P receptor membrane; for Emax: control S1P, read-out: S1P5 % Efficacy
T2 construct: expressed in transfected cells; host or cells: CHO cell membranes
T2 sequence (Q9H228 whole entry, species assumed): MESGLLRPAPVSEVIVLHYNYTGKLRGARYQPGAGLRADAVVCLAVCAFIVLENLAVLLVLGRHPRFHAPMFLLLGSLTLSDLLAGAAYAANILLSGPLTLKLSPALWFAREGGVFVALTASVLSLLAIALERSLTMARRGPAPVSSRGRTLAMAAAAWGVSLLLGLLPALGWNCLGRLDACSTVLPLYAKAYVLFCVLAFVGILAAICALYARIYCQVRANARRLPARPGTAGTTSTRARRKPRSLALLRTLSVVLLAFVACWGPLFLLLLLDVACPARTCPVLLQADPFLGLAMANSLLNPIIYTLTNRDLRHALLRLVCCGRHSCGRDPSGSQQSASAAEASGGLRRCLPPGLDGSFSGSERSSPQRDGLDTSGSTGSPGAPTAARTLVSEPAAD
Method: as §1

T1 sequence (P21453 whole entry, species assumed): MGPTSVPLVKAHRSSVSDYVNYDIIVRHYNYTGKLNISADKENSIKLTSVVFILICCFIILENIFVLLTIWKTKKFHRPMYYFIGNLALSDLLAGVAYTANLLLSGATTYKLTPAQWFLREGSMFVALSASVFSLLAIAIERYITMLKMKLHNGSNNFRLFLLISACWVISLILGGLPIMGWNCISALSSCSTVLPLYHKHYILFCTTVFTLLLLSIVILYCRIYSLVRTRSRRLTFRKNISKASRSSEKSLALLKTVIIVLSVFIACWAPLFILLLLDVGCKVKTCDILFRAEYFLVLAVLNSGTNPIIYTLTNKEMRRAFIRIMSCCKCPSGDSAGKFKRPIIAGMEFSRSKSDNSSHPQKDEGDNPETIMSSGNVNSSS

| Compound | EC50 (S1P1) [µM] | Emax (S1P1) [%] | EC50 (S1P5) [µM] | Emax (S1P5) [%] |
| --- | --- | --- | --- | --- |
| COC1=CCc2c1cccc2-c1noc(-c2ccc(OC(C)C)c(C#N)c2)n1 [compound 2, 2-isopropoxy-5-(3-(3-methoxy-1H-inden-7-yl)-1,2,4-oxadiazolyl)benzonitrile] | 0.018 | 87 | 0.148 | 33 |
| CC(C)OC1=CCc2c1cccc2-c1noc(-c2ccc(OC(C)C)c(C#N)c2)n1 [compound 4, 2-isopropoxy-5-(3-(3-isopropoxy-1H-inden-7-yl)-1,2,4-oxadiazol-5-yl)-benzonitrile] | 0.007 | 86 | 0.151 | 79 |
| CCOC1=CCc2c1cccc2-c1noc(-c2ccc(OC(C)C)c(C#N)c2)n1 [compound 3, 5-(3-(3-ethoxy-1H-inden-7-yl)-1,2,4-oxadiazol-5-yl)-2-isopropoxy-benzonitrile] | 0.032 | 92 | 0.27 | 68 |
